Source: patent US20240360107A1, “AN EIF4A INHIBITOR WITH A NOVEL MECHANISM OF ACTION” (ARIZONA BOARD OF REGENTS ON BEHALF OF THE UNIVERSITY OF …, priority 2021, published 2024)
“Also recorded” adds a separate entry of the source.

Experiments:
Assay type in all cases: biochemical
[1] = target: T1, eIF4A R311E mutant (Homo sapiens, UniProt P60842, R311E); assay: malachite green ATPase assay, eIF4A mutant
T1 construct: 6xHis with TEV protease site (N, cleaved yes); made in house; host or cells: E. coli BL21-CodonPlus
Source text: (§1) Furthermore, eIF4A R311K and R311E mutants were produced and tested with compound 28. As expected, compound 28 had no potency toward R311E, as the positively charged arginine is replaced with a negatively charged glutamic acid that repels the carboxylic acid of compound 28. However, compound 28 also had no potency for eIF4A R311K, even though it still maintains its positive charge. This may be attributed to the inability of this lysine to simultaneously provide hydrogen bond donation and ionic interactions to compound 28 due to geometrical constraints. The molecular docking also predicted that the furan of 28 may form a hydrogen bond with T109, and the butyl group may lie within a small hydrophobic groove within the binding pocket (FIG. 6A). Nevertheless, mutations to R110, T158, and R311 causing drastic losses in potency of compound 28 provided strong evidence that this was the correct binding pocket and pose for compound 28. This site, wedged between each RecA-like domain of eIF4A, is a novel binding pocket that has never been accessed by an eIF4A inhibitor.
(§2) ATPase assay. Recombinant WT or mutant eIF4A was added to a clear bottom 384 well plate (Greiner) in ATPase buffer (20 mM Tris pH 7.4, 80 mM KCl, 2.5 mM MgCl2, 1 mM DTT, 1% glycerol). […] The solution was incubated for 5 minutes at room temperature and Absorbance at 660 nm was read on a SpectraMax iD5 plate reader (Molecular Devices).

[2] = target: T2, eIF4A R311K mutant (Homo sapiens, UniProt P60842, R311K); assay: malachite green ATPase assay, eIF4A mutant
T2 construct: 6xHis with TEV protease site (N, cleaved yes); made in house; host or cells: E. coli BL21-CodonPlus
Source text: as §1, §2

[3] = test system: cap-dependent translation of firefly luciferase; assay: in vitro translation of bicistronic luciferase reporter in rabbit reticulocyte lysate, firefly luciferase; settings: Cycloheximide 600 μM, Silvestrol 100 nM
Source text: A bicistronic luciferase reporter ([…]) (FIG. 7B, top) was programmed into rabbit reticulocyte lysates, cellular extracts capable of performing both cap-dependent and Hepatitis C virus (HCV) internal ribosomal entry site (IRES)-mediated translation. eIF4A is the enzymatic driver of cap-dependent translation and is not involved in translation through HCV IRES. Compounds that inhibit eIF4A should inhibit cap-dependent translation of firefly (FF) luciferase while leaving IRES-mediated translation of Renilla (Ren) luciferase relatively unaffected. The inhibitory activities of cycloheximide, silvestrol, and 28 were assessed in this in vitro translation assay (FIG. 7B, bottom). […] The ability of compound 28 to preferentially target cap-dependent translation in a similar manner as silvestrol provides promising evidence that 28 inhibits eIF4A and not other proteins in the general translational machinery.
The dual-luciferase reporter plasmid pSP/(CAG)33/FF/HCV/Ren-pA51 was linearized with BamHI and subsequently in vitro transcribed using the Promega mMessage mMachine SP6 transcription kit, according to manufacturer's specifications. RNA was precipitated with LiCI and resuspended in H2O for use in in vitro translation experiments. Rabbit reticulocyte lysate (RRL) (nuclease-treated, Promega) was used to assess inhibitory effects of 28 on translation of the dual-reporter. Briefly, a reaction consisting of 50% RRL, 30 ng/μL reporter RNA, 10 μM Amino Acid Mixture Minus Methionine, 10 μM Amino Acid Mixture Minus Leucine, […], 1 U/μL RNAseOut (Thermo), and drug (final DMSO concentration 1%) were incubated at 30° C. for 90 minutes. The reaction was quenched with 50 μL 1× Passive Lysis Buffer (Promega), 10 μL of the mix was transferred to a 96-well white plate (Cellstar), and the Dual-Reporter Luciferase Assay System (Promega) was used to generate luminescence according to the manufacturer's instructions. Luminescence was detected using a plate reader (BioTek HT Synergy).

T1 sequence (P60842 whole entry R311E): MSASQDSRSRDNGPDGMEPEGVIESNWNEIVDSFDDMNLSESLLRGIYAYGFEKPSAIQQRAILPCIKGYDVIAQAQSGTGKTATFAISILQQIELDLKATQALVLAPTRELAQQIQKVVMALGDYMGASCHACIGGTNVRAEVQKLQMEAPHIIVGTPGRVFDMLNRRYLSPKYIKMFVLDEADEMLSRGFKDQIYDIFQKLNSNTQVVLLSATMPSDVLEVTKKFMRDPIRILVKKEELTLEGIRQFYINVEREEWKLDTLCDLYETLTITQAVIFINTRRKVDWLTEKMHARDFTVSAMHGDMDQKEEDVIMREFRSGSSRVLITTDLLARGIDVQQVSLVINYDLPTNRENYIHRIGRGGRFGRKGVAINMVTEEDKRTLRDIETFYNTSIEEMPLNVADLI
T2 sequence (P60842 whole entry R311K): as the sequence (P60842 whole entry R311E) above, with E311K counted along it

For `CCCCc1ccc(-c2ccc(-c3cc(C(=O)O)c4cc([N+](=O)[O-])ccc4n3)o2)cc1` [Compound 28, 2-(5-(4-butylphenyl)furan-2-yl)-6-nitroquinoline-4-carboxylic acid], the “potency against eIF4A mutant in ATPase assay” value [1] was “no potency”, the “potency against eIF4A mutant in ATPase assay” value [2] was “no potency” and the “effect on cap-dependent translation (firefly luciferase)” value [3] was “inhibit cap-dependent translation of firefly luciferase; also recorded: inhibits cap-dependent translation”.
